# Where a name gives a salt, the structure may show the parent alone. Read-outs that look alike come from different tables or passages of the source.
# Tests used:
# [1] = tested on: UACC 903 melanoma cell line; test: MTS cell viability assay, UACC 903; assay type: cell-based; details: Homo sapiens; UACC 903 melanoma; 24 hours treatment; MTS; read-out: IC50, UACC 903 (Table I)
# Method: Cellular viability compared to control treated cells is measured using the MTS assay (Promega, Madison, Wis.).
# [2] = tested on: HCT-116 colorectal adenocarcinoma cells; test: MTS cell viability assay, HCT-116; assay type: cell-based; details: Homo sapiens; HCT-116; 24-72 hours; MTS; read-out: Inhibition of growth IC50, HCT-116 (Table II)
# [3] = tested on: A549, Caco-2, HT-1080, PC-3, OVCAR-3, MDA-MB-231, WM115; test: MTS viability, all cancer cell lines tested (summary); assay type: cell-based, human
# Method: Growth inhibitory effects on cultured cells from human vertical growth phase (VGP) melanoma cell line WM115, Lung adenocarcinoma (A549), fibrosarcoma (HT-1080), prostate adenocarcinoma (PC-3), ovarian carcinoma (OVCAR-3), and breast adenocarcinoma (MDA-MB-231) are plated in 96 well plates at a density of 5×10^3 cells/well in 100 μl media. […] Dose response curves for each compound are generated and the IC50 values (μM) determined using GraphPad Prism software. Each experiment is replicated at least 3 times and the average IC50 (μM) values with standard error represented.
# [4] = tested on: iNOS (total nitrate+nitrite in Caco-2 cells); test: Nitrite estimation (nitrate/nitrite colorimetric assay); assay type: cell-based; details: 2-4 μM, 72 hours
# Method: Nitrite content in cell culture media is determined using a nitrate/nitrite colorimetric assay kit (Cayman Chemical Company, Ann Arbor, Mich.) essentially as described in Salvucci, O. et al., Cancer Res 2001; 61:318-26. Caco-2 cells (1×10^6) are plated in 60 mm culture dishes in advanced DMEM containing 10% heat treated FBS for 12 hours, growing cells conditioned with phenol-red free DMEM containing 0.5% FBS for an additional 12 hours. Cells are then treated with increasing concentrations of PBIT (40 and 80 μM) or PBISe (2 and 4 μM) dissolved in phenol-red free DMEM (2 ml) containing 0.5% FBS for 72 hours. Culture supernatants are collected and total nitrite (nitrate+nitrite) measured by incubating 80 μL supernatant with enzyme cofactor mixture (10 μL) and nitrate reductase (10 μL) for 2 hours. Total nitrite is measured by the addition of Griess reagent-I and II (50 μL each). A nitrate standard curve (5-35 μM) is simultaneously prepared. Total nitrite present in media alone is subtracted from all experimental values and represented as micromolar nitrite produced following each treatment.
# [5] = tested on: WM115 melanoma cell line; test: MTS cell viability assay, WM115; details: for IC50: Homo sapiens, WM-115, 24 h
# Method: 5×10^3 cells per well in 100 μl DMEM-10% FBS are grown in a 96-well plate for 36 or 72 hours, respectively for melanoma (UACC 903, 1205 Lu and WM115) and human fibroblast (FF2441) cell lines and treated with either PBS vehicle or increasing concentrations (3.5-21 μM) of PBIT, PBISe, PEIT or PEISe for 24 hours. Cellular viability compared to control treated cells is measured using the MTS assay (Promega, Madison, Wis.). IC50 (μM) values for each compound in respective cell lines is determined from three independent experiments using GraphPad Prism version 4.01 (GraphPad, San Diego, Calif.), bars, SEM.
# Growth inhibitory effects on cultured cells from human vertical growth phase (VGP) melanoma cell line WM115, Lung adenocarcinoma (A549), fibrosarcoma (HT-1080), prostate adenocarcinoma (PC-3), ovarian carcinoma (OVCAR-3), and breast adenocarcinoma (MDA-MB-231) are plated in 96 well plates at a density of 5×10^3 cells/well in 100 μl media. The cells are treated 36 hours later with PBISe (0.19-100 μM), PBIT (10-100 μM), PEIT 10-100 μM), or PEISe (10-100 μM) for 24 h and cell viability measured using MTS assay. Dose response curves for each compound are generated and the IC50 values (μM) determined using GraphPad Prism software. Each experiment is replicated at least 3 times and the average IC50 (μM) values with standard error represented.
smiles,measurement,setting,value
"N=C(N)[Se]CCc1ccc(CC[Se]C(=N)N)cc1 [PBISe, s,s′-1,4-phenylene-bis(1,2-ethanediyl)bis-isoselenourea dihydrobromide]",IC50,[1],8.1 ± 0.8 µM
same,IC50,[2],4.72 ± 0.44 µM
same,"fold more potent at decreasing cell viability compared to PBIT, all cancer cell lines tested","[3]; A549, Caco-2, HT-1080, PC-3, OVCAR-3, MDA-MB-231, WM115",> 10 fold
same,IC50,"[3]; Homo sapiens, read-out: concentration decreasing cell viability by 50% (IC50), cancer cell lines of Table III",8 to 10 µM
same,total nitrate+nitrite production,[4],reduces
same,IC50,"[5]; read-out: IC50, WM115 (Table I)",9.7 ± 1.4 µM
same,IC50,"[5]; read-out: Inhibition Cancer Cells IC50, WM115 (Table III)",9.7 ± 1.4 µM
same,"Fold increase in efficacy (PBIT/PBISe), WM115","[5]; ratio of IC50 PBIT/PBISe, WM115",>10 fold
